# Reference: ChEMBL document CHEMBL1201862, “PubChem BioAssay data set” (2004)
# Activity calls are given as the source filed them.
# Assays:
# [1] = HepG2 cell cytotoxicity, dose response, cytotoxicity control for non-replicating M. tuberculosis project (AID 489018); format: functional; settings: Mycobacterium tuberculosis
# [2] = Vero E6 cell cytotoxicity, dose response, cytotoxicity control for non-replicating M. tuberculosis project, secondary assay (AID 492998); format: functional, VeroE6; settings: Vero C1008
# cells = format: functional
# [3] = THP-1 cell cytotoxicity, dose response, cytotoxicity control for non-replicating M. tuberculosis project (AID 489025); format: functional
# [4] = HEK-293T viability loss after treatment – luminescence, T-cell screen hits, cytotoxicity control for TCR NF-kB inhibitor project, dose response (AID 489026); format: functional, cell-based;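 note: cells exposed to compound about 14 hours before the viability readout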
# [5] = target: Voltage-gated inwardly rectifying potassium channel KCNH2 (Homo sapiens, UniProt Q12809); settings: Potency;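 note: confirmatory quantitative high-throughput screen measuring inhibition of hERG channel activity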
# Chain of Voltage-gated inwardly rectifying potassium channel KCNH2 (Q12809 whole entry): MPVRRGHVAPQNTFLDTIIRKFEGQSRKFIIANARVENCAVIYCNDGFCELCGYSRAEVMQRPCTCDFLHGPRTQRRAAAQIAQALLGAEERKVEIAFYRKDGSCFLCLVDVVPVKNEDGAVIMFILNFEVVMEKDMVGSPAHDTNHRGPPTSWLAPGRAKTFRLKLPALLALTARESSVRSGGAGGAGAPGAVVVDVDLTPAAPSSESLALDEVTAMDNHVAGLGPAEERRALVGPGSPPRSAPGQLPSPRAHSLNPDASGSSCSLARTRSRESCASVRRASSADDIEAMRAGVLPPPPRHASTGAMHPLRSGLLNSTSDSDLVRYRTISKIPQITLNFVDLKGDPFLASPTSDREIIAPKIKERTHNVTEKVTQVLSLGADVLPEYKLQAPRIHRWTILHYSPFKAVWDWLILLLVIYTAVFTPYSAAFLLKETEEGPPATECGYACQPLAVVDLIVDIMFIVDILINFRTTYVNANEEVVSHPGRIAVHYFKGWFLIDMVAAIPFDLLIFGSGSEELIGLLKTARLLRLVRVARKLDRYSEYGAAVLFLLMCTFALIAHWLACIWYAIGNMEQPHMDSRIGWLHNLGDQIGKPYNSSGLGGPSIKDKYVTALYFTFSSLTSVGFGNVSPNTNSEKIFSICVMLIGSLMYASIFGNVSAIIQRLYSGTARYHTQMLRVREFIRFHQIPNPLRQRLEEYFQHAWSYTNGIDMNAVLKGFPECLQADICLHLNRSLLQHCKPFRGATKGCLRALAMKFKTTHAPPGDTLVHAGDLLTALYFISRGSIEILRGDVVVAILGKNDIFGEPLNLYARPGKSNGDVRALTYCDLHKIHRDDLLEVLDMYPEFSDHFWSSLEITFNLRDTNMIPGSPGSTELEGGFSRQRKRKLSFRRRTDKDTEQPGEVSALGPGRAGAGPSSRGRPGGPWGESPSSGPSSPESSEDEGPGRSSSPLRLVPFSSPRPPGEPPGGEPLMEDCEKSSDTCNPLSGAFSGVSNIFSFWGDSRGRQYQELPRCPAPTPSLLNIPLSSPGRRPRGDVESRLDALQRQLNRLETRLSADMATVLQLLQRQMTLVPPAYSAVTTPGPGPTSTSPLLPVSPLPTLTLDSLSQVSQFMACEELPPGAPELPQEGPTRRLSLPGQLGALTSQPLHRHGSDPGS
# Cytochrome P450 3A4 = Cytochrome P450 3A4 (Homo sapiens, UniProt P08684); settings: Potency;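 note: confirmatory qHTS run detecting inhibitors and substrates of CYP3A4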
# Chain of Cytochrome P450 3A4 (P08684 whole entry): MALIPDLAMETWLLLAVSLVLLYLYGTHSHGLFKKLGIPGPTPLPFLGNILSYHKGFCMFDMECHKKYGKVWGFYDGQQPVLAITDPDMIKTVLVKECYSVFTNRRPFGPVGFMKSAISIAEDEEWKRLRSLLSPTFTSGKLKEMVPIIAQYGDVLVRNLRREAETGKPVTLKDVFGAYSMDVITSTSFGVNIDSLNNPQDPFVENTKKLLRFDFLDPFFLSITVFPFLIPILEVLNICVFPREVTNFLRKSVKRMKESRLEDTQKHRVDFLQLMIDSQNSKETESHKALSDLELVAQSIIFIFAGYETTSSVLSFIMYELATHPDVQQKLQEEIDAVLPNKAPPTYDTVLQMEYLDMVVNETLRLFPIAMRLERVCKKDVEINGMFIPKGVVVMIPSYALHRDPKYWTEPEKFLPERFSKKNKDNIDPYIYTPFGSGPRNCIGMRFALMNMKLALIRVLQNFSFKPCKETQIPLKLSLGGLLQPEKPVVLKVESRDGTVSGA
# [6] = fluconazole-exposed Candida albicans growth modulators – fluorescence, retest, confirmation (AID 2467); format: functional, cell-based
# [7] = NIH-3T3 fibroblast cytotoxicity, dose response, cytotoxicity control, cell-based, fluorescence, Alamar Blue, secondary assay (AID 2327); format: functional;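 note: NIH-3T3 mouse fibroblasts cultured with fluconazole at 8 µg/mL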
# P388/ADR = test: cells; format: functional; settings: Mus musculus
# SN12K1 = test: cells; format: functional; settings: Homo sapiens
# P388 = test: cells; format: functional; settings: Mus musculus
# [8] = target: T1, Endoribonuclease toxin MazF (Escherichia coli K-12, UniProt P0AE70); test: substrate-only fluorescence increase artefacts – biochemical, single-stranded RNase substrate, counter-screen for MazEF activator project, dose response (AID 588502); format: functional
# T1 sequence (P0AE70 whole entry): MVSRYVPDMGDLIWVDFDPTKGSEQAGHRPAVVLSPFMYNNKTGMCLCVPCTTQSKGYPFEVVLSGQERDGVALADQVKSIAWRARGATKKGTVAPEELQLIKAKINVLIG
# [9] = target: T1, Endoribonuclease toxin MazF; test: activation of MazEF endoribonuclease cleavage – biochemical, fluorescence, single-stranded RNA substrate, uHTS hits, dose response (AID 588481); format: functional
# [10] = target: T2, Short transient receptor potential channel 4 (Mus musculus, UniProt Q9QUQ5); test: calcium entry via TRPC4 opening agents – cell-based, HEK293 TRPC4/mu-opioid, Fluo-4 calcium, dose response (AID 434937); format: functional
# T2 sequence (Q9QUQ5 whole entry): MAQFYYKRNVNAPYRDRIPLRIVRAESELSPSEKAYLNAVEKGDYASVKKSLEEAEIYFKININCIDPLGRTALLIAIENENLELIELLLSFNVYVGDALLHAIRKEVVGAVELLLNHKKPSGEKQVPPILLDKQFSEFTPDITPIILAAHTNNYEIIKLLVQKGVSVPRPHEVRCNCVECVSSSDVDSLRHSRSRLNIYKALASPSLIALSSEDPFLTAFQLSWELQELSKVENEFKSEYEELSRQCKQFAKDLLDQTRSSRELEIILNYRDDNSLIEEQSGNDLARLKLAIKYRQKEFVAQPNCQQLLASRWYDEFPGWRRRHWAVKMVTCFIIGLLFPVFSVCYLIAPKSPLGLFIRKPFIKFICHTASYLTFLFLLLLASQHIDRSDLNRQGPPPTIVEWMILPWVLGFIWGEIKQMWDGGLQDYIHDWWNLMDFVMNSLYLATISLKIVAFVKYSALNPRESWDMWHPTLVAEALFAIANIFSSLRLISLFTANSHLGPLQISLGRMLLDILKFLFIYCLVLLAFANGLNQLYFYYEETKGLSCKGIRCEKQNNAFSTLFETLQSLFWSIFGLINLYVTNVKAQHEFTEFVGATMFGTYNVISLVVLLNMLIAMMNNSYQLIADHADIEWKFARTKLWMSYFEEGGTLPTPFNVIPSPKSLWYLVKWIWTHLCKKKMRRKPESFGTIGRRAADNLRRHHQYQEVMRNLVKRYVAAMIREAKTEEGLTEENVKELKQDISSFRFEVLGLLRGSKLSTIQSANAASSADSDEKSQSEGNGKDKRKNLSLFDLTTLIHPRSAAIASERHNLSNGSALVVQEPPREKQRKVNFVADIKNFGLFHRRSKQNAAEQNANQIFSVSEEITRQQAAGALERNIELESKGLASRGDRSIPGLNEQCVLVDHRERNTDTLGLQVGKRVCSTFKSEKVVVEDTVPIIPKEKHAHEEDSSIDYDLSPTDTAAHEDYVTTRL
# [11] = microbe, parasite or virus in culture; format: functional; settings: Mycobacterium tuberculosis
# Streptokinase A = target: T3, Streptokinase A (Streptococcus pyogenes serotype M1, UniProt P10520); test: viability-normalized secreted streptokinase activity reduction – plasminogen activation absorbance, OD405, dose response (AID 1914); format: functional, Streptococcus pyogenes M1 GAS;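 note: secreted streptokinase activity via plasminogen activation per viability signal from cell pellet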
# T3 sequence (P10520 whole entry): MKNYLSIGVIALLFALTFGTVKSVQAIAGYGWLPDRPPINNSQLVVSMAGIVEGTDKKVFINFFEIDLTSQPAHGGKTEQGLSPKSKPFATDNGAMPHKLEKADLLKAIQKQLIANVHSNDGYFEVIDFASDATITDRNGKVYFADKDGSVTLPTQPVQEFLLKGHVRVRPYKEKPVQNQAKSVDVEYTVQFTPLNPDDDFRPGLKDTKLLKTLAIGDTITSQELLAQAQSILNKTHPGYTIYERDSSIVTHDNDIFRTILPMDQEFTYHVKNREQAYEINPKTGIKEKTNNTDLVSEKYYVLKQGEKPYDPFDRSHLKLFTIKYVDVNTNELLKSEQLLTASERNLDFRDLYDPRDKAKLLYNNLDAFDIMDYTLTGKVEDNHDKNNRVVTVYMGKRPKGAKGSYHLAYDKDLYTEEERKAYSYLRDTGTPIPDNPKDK
# [12] = system: Streptococcus sp. 'group A'; test: Streptococcus pyogenes SK(-)GAS viability under kanamycin – luminescence, BacTiterGlo, confirmation, counter-screen for streptokinase expression inhibitor project, dose response (AID 1900); format: functional, organism-based
# Streptococcus = test: GAS UMAA2166 growth inhibition – luminescence, BacTiterGlo, counter-screen for streptokinase expression inhibitor project, dose response (AID 1915); format: functional, organism-based;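 note: potency for reduction of bacterial viability or growth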
# [13] = target: T4, Replicative DNA helicase DnaB (Mycobacterium tuberculosis, UniProt P9WMR3); test: DnaB intein splicing inhibitors, dose response, biochemical, cell-free fluorescence (AID 449749); format: functional
# T4 sequence (P9WMR3 whole entry): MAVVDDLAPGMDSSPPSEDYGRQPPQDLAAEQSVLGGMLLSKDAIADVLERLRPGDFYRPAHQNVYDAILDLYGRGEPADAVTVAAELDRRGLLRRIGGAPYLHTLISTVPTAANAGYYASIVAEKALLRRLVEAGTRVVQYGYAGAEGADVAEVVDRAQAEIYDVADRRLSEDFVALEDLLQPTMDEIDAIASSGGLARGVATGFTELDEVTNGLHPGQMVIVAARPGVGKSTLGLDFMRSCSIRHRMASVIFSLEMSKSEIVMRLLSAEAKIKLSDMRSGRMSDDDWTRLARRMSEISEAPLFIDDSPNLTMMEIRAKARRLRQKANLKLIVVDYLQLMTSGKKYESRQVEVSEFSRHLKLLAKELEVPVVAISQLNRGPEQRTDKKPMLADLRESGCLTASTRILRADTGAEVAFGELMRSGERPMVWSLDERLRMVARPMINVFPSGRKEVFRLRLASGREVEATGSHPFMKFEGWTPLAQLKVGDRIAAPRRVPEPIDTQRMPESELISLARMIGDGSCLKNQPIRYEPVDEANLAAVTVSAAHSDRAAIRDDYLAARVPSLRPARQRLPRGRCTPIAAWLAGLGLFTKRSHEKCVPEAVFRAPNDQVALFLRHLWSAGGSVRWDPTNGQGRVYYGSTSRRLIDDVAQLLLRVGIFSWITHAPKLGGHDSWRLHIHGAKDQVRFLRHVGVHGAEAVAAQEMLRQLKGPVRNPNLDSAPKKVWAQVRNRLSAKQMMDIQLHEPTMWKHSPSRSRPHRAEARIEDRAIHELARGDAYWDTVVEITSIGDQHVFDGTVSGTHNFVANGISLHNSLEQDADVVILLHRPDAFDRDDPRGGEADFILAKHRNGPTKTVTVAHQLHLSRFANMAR
# Protein RecA = target: T5, Protein RecA (Mycobacterium tuberculosis, UniProt P9WHJ3); test: Fluorescence Cell-Free Homogeneous Dose Retest to Identify Inhibitors of RecA-Intein Splicing Activity. [Related pubchem assays (depositor defined):AID2097, AID2223, AID489010, AID492950]; format: functional
# T5 sequence (P9WHJ3 whole entry): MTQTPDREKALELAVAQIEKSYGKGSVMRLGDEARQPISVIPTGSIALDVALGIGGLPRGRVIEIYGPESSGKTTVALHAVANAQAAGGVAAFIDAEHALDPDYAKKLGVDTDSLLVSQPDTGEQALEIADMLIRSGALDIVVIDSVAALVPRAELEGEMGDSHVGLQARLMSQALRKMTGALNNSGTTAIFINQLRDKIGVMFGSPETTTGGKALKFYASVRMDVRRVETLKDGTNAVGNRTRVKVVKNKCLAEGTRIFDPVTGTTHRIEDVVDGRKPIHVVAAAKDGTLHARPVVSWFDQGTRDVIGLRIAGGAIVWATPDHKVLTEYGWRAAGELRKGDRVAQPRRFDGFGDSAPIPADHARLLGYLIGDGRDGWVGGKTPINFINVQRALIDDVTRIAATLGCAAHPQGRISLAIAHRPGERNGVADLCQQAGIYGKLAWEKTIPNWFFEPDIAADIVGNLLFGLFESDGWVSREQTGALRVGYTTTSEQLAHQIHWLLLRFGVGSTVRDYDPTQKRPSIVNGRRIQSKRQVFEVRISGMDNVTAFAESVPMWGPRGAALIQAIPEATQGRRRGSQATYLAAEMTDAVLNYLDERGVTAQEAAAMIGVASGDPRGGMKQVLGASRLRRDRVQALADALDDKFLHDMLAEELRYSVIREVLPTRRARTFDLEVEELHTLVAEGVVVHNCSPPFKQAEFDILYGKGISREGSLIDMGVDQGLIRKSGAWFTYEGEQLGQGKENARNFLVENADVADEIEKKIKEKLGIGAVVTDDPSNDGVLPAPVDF
# [14] = target: T6, High affinity choline transporter 1 (Homo sapiens, UniProt Q9GZV3); test: human choline transporter blockers, potency – cell-based, 5-point CRC, membrane potential dye, dose response (AID 504840); format: functional
# T6 sequence (Q9GZV3 whole entry): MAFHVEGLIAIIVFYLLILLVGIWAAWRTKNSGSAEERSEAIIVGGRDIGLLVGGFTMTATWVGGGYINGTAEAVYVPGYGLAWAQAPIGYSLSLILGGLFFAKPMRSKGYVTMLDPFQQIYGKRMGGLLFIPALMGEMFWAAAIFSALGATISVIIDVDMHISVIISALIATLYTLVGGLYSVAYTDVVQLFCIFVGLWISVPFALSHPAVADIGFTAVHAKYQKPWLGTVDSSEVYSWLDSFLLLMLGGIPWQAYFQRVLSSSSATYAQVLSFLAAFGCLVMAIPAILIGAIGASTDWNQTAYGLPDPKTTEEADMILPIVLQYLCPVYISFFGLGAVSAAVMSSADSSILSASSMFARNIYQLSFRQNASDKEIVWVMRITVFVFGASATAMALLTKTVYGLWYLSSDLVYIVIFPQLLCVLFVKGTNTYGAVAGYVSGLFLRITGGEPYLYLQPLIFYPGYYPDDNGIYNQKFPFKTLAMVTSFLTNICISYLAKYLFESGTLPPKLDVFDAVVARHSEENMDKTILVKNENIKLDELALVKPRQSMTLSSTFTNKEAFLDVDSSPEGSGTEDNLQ
smiles,measurement,setting,value
COc1cc(C(=O)N/N=C/c2cc([N+](=O)[O-])cs2)cc(OC)c1OC,CC50,[1],> 20 µM (active)
same,CC50,[2],5.03 µM (active)
same,IC50,cells,0.87 µM (active)
same,CC50,[3],0.724 µM (active)
same,IC50,[4],> 80 µM (inactive)
CCCCCCCC/C=C\CCCCCCCC(=O)N(CCO)CCO,AC50,[5],31.6 µM (inconclusive)
same,AC50,Cytochrome P450 3A4,12.6 µM (inconclusive)
ClC1=C(Cl)C2(Cl)C3C4C=CC(C4)C3C1(Cl)C2(Cl)Cl (stereo unspecified) [ALDRIN],AC50,[5],20 µM (inconclusive)
CC(C)c1ccc(C2=C(O)C(=O)c3ccccc3C2=O)cc1,EC50,[6],1.11 µM (active)
same,CC50,[2],16.5 µM (active)
same,EC50,[7],67.1 µM (active)
Nc1nc2[nH]c(=O)cnc2c(=O)[nH]1 [ISOXANTHOPTERIN],GI50,P388/ADR,> 125 µM (inactive)
same,AC50,[5],17.8 µM (inconclusive)
same,GI50,SN12K1,> 125 µM (inactive)
same,GI50,P388,> 125 µM (inactive)
COc1cccc(Nc2nc(-c3ccccc3O)nc3ccccc23)c1,EC50,[8],40.7 µM (inactive)
same,EC50,[9],> 99 µM (inactive)
Cc1cccc(C(=O)OC2CCCN(C)C2)c1C (stereo unspecified),EC50,[10],0.841 µM (active)
CCOC(=O)c1ncn2c1[C@@H]1CCCN1C(=O)c1cc(OC)ccc1-2,AC50,[5],25.1 µM (inconclusive)
CN(C)C1(CNC(=O)Nc2ccc(Cl)c(Cl)c2)CCCCC1,EC50,[10],1.68 µM (active)
same,CC50,[11],> 40 µM (active)
O=[N+]([O-])c1cc(Cl)cc(/C=N/Nc2nc3ccccc3s2)c1O,CC50,[1],16.4 µM (active)
same,CC50,[2],10.4 µM (active)
same,IC50,cells,2.82 µM (active)
same,CC50,[3],10 µM (active)
same,EC50,Streptokinase A,> 150 µM (not active)
same,EC50,[12],2.17 µM (active)
same,EC50,Streptococcus,7.64 µM (active)
O=C(CCl)NN=C(c1ccccc1)c1ccccc1,EC50,[8],> 99 µM (inactive)
same,AC50,[13],12.1 µM (active)
same,EC50,[9],61.2 µM (inactive)
same,EC50,Protein RecA,2.71 µM (active)
same,CC50,[11],6.85 µM (active)
Cc1cccc(OCC(O)Cn2c(=N)n(Cc3ccccc3)c3ccccc32)c1 (stereo unspecified),IC50,[14],6.92 µM (active)
same,CC50,[1],> 20 µM (active)
same,CC50,[3],23.3 µM (active)
